Results: publication PMC7206119, “RIP1 inhibition blocks inflammatory diseases but not tumor growth or metastases” (Cell Death and Differentiation, 2019)

Columns and labels:
Assay in all cases: biochemical
Set-up in all cases: DiscoverX kinase panel, active-site competition binding (KINOMEscan type), percent of control at one concentration
Settings in all cases: competition binding, percent of control
MKK7 = target: T1, MKK7 (Homo sapiens, UniProt O14733)
T1 construct: gene MAP2K7

CAMKK2 = CAMKK2 (Homo sapiens, UniProt Q96RR4)
MAST1 = MAST1 (Homo sapiens, UniProt Q9Y2H9)
MLCK = target: T2, MLCK (Homo sapiens, UniProt Q32MK0)
T2 construct: gene MYLK3
T2 sequence (Q32MK0 whole entry): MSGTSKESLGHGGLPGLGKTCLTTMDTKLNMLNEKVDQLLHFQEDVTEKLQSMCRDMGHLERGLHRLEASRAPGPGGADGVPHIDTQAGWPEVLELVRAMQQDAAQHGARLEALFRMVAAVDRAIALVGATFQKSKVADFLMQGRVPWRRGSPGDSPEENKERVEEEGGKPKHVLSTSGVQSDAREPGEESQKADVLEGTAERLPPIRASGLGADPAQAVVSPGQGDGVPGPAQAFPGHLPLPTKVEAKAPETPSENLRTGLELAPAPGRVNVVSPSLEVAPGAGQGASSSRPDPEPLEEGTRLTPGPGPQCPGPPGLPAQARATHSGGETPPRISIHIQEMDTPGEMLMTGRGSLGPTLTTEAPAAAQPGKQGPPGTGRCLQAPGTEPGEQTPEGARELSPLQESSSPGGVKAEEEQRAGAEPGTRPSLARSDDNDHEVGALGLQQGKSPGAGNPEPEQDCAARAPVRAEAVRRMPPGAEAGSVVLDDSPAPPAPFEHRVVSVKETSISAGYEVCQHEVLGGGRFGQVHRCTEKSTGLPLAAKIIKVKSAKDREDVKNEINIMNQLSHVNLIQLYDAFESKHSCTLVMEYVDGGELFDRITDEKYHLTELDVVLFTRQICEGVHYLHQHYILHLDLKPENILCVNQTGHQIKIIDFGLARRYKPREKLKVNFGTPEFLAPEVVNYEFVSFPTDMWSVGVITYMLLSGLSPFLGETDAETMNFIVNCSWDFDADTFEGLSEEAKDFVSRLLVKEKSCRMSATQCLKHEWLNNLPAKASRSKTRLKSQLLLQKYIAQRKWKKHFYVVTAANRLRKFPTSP

ASK1 = target: T3, ASK1 (Homo sapiens, UniProt Q99683)
T3 construct: gene MAP3K5

NEK5 = NEK5 (Homo sapiens, UniProt Q6P3R8)
Chain of NEK5 (Q6P3R8 whole entry): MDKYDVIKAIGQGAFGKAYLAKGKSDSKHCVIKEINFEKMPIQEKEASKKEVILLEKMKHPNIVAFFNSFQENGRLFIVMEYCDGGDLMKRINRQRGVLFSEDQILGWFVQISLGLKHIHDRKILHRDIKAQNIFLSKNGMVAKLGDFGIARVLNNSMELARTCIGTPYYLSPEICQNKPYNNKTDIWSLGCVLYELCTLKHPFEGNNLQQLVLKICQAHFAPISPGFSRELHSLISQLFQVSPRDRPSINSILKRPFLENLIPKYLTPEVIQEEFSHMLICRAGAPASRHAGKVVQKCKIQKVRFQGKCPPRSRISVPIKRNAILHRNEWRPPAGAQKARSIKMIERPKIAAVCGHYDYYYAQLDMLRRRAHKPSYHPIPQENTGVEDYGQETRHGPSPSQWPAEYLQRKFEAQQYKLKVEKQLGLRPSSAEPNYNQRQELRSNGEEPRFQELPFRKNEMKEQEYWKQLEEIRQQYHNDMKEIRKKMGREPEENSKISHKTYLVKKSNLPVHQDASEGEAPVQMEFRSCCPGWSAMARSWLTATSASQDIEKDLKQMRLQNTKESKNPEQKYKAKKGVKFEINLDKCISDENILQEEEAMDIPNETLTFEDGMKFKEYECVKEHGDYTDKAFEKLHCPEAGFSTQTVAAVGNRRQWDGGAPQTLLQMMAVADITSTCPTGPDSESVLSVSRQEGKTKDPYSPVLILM

FLT3(D835Y) = FLT3(D835Y) (Homo sapiens, UniProt P36888, D835Y)
PIK3CA(C420R) = PIK3CA(C420R) (Homo sapiens, UniProt P42336, C420R)
Chain of PIK3CA(C420R) (P42336 whole entry C420R): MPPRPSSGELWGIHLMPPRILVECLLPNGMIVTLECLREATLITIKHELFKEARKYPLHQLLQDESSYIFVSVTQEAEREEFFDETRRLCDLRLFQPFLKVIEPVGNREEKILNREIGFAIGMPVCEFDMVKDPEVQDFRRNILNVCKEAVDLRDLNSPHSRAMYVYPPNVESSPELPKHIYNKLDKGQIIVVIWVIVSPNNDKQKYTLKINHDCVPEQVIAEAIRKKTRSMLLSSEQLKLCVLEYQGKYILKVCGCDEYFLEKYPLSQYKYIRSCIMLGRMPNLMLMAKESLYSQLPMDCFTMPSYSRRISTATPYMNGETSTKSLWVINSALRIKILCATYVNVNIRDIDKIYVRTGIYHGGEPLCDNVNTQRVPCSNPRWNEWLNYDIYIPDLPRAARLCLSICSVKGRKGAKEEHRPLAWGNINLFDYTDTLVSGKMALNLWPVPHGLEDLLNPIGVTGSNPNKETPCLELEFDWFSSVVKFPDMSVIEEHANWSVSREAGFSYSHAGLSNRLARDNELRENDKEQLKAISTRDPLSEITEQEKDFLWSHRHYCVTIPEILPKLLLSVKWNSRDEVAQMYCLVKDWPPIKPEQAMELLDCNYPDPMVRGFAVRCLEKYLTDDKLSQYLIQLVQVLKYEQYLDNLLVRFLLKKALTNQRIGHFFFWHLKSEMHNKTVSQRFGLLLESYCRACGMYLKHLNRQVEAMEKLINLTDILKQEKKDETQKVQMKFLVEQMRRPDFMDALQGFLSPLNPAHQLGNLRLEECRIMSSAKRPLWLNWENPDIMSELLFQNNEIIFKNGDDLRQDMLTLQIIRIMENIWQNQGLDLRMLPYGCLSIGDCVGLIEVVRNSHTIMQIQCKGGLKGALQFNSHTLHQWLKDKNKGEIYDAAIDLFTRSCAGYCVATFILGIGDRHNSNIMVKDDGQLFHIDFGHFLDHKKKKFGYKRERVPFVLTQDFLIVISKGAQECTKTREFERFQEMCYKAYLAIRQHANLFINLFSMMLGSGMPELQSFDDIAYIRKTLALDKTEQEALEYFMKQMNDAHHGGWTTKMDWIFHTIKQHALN

JNK1 = target: T4, JNK1 (Homo sapiens, UniProt P45983)
T4 construct: gene MAPK8

DLK = target: T5, DLK (Homo sapiens, UniProt Q12852)
T5 construct: gene MAP3K12

ACVR2B = ACVR2B (Homo sapiens, UniProt Q13705)
Chain of ACVR2B (Q13705 whole entry): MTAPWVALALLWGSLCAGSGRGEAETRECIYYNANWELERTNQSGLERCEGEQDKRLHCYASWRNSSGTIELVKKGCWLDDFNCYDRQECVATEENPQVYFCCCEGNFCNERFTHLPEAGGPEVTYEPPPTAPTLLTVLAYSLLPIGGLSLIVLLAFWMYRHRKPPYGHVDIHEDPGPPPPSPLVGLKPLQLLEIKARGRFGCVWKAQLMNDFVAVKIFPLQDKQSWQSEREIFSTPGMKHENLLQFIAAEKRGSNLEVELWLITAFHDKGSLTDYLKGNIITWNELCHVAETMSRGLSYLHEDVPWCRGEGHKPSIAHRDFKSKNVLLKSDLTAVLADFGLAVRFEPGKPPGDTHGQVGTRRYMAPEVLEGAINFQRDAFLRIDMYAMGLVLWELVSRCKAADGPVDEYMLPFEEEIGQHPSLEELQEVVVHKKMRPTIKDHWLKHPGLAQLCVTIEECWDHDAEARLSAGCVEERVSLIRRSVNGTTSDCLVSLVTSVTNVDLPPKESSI

SIK2 = SIK2 (Homo sapiens, UniProt Q9H0K1)
PDPK1 = PDPK1 (Homo sapiens, UniProt O15530)
PDGFRA = PDGFRA (Homo sapiens, UniProt P16234)
GRK4 = GRK4 (Homo sapiens, UniProt P32298)
NDR2 = target: T6, NDR2 (Homo sapiens, UniProt Q9Y2H1)
T6 construct: gene STK38L

[1] = target: EGFR(L747-E749del, A750P) (Homo sapiens, UniProt P00533, A750P/DEL747-749)
WNK3 = WNK3 (Homo sapiens, UniProt Q9BYP7)
PLK2 = PLK2 (Homo sapiens, UniProt Q9NYY3)
Chain of PLK2 (Q9NYY3 whole entry): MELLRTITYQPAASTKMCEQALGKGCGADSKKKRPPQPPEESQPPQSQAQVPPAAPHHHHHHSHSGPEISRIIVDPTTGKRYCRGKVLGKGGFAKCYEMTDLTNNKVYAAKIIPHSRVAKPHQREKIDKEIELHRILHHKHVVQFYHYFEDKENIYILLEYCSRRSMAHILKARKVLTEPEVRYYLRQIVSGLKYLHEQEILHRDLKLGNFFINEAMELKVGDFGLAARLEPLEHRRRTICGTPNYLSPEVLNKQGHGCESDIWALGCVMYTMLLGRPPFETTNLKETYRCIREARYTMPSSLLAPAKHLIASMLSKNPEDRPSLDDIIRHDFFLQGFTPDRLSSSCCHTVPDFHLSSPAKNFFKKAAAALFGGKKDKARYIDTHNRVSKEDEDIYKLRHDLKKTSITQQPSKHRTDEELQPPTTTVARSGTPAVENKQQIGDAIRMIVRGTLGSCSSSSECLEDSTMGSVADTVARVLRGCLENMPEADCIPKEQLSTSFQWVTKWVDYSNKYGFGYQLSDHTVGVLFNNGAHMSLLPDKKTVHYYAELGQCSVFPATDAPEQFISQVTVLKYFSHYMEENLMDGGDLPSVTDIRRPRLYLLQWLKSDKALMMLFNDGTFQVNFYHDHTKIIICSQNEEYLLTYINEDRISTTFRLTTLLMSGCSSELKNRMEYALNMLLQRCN

MAP3K15 = MAP3K15 (Homo sapiens, UniProt Q6ZN16)
Chain of MAP3K15 (Q6ZN16 whole entry): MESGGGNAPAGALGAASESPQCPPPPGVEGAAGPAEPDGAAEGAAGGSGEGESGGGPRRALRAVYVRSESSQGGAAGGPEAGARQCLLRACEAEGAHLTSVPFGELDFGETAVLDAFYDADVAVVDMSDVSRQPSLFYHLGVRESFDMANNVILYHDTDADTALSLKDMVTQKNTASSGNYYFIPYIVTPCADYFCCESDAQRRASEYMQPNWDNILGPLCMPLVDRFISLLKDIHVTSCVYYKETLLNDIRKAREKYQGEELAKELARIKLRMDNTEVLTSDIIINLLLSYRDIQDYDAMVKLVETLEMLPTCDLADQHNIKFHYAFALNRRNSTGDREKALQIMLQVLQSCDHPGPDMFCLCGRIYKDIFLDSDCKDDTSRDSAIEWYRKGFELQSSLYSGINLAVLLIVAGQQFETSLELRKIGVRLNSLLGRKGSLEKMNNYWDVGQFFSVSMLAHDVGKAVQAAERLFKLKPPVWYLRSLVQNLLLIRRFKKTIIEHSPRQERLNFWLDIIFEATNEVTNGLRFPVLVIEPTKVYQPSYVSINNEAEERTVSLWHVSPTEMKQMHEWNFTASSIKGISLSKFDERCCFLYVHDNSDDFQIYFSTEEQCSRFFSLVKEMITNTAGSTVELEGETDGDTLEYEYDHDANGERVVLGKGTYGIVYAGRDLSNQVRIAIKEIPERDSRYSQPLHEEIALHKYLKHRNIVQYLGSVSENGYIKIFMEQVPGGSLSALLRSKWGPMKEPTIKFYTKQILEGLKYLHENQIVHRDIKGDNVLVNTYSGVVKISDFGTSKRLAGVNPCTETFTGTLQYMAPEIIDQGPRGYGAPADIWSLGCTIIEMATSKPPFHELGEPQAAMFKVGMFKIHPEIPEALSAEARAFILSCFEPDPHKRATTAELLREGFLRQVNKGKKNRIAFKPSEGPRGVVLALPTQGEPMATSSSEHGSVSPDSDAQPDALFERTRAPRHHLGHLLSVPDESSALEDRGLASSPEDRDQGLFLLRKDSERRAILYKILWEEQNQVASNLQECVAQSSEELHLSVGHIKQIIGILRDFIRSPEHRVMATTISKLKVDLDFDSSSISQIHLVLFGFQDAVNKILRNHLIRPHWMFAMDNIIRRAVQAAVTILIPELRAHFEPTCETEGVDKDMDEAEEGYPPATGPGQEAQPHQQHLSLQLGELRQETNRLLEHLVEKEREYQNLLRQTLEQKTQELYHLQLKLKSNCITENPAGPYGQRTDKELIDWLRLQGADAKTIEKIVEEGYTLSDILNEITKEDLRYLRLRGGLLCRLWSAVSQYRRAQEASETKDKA

MINK = target: T7, MINK (Homo sapiens, UniProt Q8N4C8)
T7 construct: gene MINK1

## COc1cc2c(cn1)N(C)C(=O)[C@@H](NC(=O)c1nc3n(n1)[C@H](c1ccccc1)CC3)CC2 [GNE684, (S)-N-((S)-7-methoxy-1-methyl-2-oxo-2,3,4,5-tetrahydro-1H-pyrido[3,4-b]azepin-3-yl)-5-phenyl-6,7-dihydro-5H-pyrrolo[1,2-b][1,2,4]triazole-2-carboxamide]
MKK7
  remaining binding at 10 µM: 98%
CAMKK2
  remaining binding at 10 µM: 100%
MAST1
  remaining binding at 10 µM: 94%
MLCK
  remaining binding at 10 µM: 66%
ASK1
  remaining binding at 10 µM: 97%
NEK5
  remaining binding at 10 µM: 100%
FLT3(D835Y)
  remaining binding at 10 µM: 100%
PIK3CA(C420R)
  remaining binding at 10 µM: 100%
JNK1
  remaining binding at 10 µM: 97%
DLK
  remaining binding at 10 µM: 100%
ACVR2B
  remaining binding at 10 µM: 94%
SIK2
  remaining binding at 10 µM: 98%
PDPK1
  remaining binding at 10 µM: 91%
PDGFRA
  remaining binding at 10 µM: 100%
GRK4
  remaining binding at 10 µM: 100%
NDR2
  remaining binding at 10 µM: 100%
[1]
  remaining binding at 10 µM: 85%
WNK3
  remaining binding at 10 µM: 100%
PLK2
  remaining binding at 10 µM: 97%
MAP3K15
  remaining binding at 10 µM: 94%
MINK
  remaining binding at 10 µM: 100%
